What is called Ki is a dissociation constant, usually derived from enzyme kinetics or from competition with a known ligand.

Sequence of human CB1 receptor (P21554 whole entry): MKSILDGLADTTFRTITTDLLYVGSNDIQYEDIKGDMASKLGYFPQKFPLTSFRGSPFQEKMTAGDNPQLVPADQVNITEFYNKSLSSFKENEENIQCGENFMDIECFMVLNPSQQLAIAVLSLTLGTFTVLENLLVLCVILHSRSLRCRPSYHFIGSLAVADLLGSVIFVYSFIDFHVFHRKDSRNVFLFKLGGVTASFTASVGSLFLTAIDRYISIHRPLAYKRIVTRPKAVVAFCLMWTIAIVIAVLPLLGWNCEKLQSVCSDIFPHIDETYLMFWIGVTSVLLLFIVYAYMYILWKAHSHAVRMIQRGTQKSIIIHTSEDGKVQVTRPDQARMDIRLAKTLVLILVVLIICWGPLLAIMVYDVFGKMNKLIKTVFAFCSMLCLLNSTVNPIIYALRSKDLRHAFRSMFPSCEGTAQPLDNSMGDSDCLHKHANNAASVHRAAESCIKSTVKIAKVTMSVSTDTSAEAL

One test concerns the target human CB1 receptor (Homo sapiens, UniProt P21554). Nature of the test: Human CB1 receptor binding, [3H] CP-55,940 displacement on HEK cell membranes. Also on record: expressed in transfected cells; host or cells: HEK cells, doxycycline-induced; membrane preparation. To be noted: CB1 Ki. As for the experimental part:
The Human CB1 receptor binding affinity and other biological activities of the compounds of this invention are determined by the following procedures. Membrane preparation: Human Embryonic Kidney (HEK) Cells expressing the human CB1 receptor under transcriptional regulation of a tetracycline inducible promoter were grown in Dulbecco's Modified Essential Medium with sodium pyruvate (Invitrogen, Carlsbad, Calif.) containing 10% tetracycline free fetal bovine serum (Clonetech, Mountain View, Calif.) 100 μg/ml hygromycin (Calbiochem, San Diego, Calif.), 5 μg/ml blasticidin (Invitrogen). CB1 receptor expression was induced by addition of 1 μg/ml doxycycline (Calbiochem) and incubation for an additional 24 hours. Cells were released from flasks using Cell Dissociation Buffer (Invitrogen). Cells were pelleted by centrifugation at 500×G for 5 minutes. Membranes were prepared by resuspending cells in ice cold TEE Buffer (25 mM Tris pH 7.4, 5 mM EDTA, 5 mM EGTA, Complete Protease Inhibitor (Roche, Basel, Switzerland)). Cells were lysed with 12 strokes of a dounce homogenizer. Unlysed cells were pelleted by centrifugation at 500×G for 5 minutes. Membranes were pelleted by centrifugation at 25,000×G for 30 minutes. Membranes were resuspended in TEE, dounced 12 strokes, and pelleted a second time at 25,000×G for 30 minutes. Membrane pellet was resuspended in 50 mM Tris pH 7.4, 100 mM NaCl, 3 mM MgCl2, 0.2 mM EGTA, Complete Protease Inhibitor (Roche). Protein concentration was determined using the Micro-BCA Protein Assay Kit (Pierce, Rockford, Ill.) using BSA as a standard. Membranes were quick frozen and stored at −80 degrees Celsius until use.
Binding experiments: 50 μl of test compound was incubated with 50 μl of [^3H] CP-55,940 (Perkin Elmer, Boston, Mass.) (final concentration=[…]) and 150 μl of membrane homogenate (1 μg/well) in polypropylene 96-well plates (Corning, Acton, Mass.). Final reaction conditions were 50 mM Tris pH 7.4, 100 mM NaCl, 3 mM MgCl2, 0.2 mM EGTA, 0.04% BSA. Nonspecific binding was determined by incubation with 50 μM WIN-55, 212-2 (Tocris, Ellisville, Mo.). After incubation at room temperature for 60 minutes reactions were harvested by vacuum filtration through Unifilter GF/B-96 filters (Perkin Elmer) that had been presoaked in assay buffer containing 0.5% BSA (Sigma, St. Louis, Mo.) using a FilterMate Plate Harvester (Perkin Elmer). Filters were rinsed 4 times with 50 mM Tris pH 7.4, 0.025% Tween-20 and dried at 50 degrees Celsius for at least 30 minutes. 40 μl of Microscint-20 (Perkin Elmer) was added per well, and plates were counted using a Top-Count Microplate Scintillation Counter (Perkin Elmer). Binding data were analyzed and EC50 and K, values calculated using Graph Pad Prism 4.0 Software.
For `CC(C)(C)[C@H](NC(=O)c1nn(Cc2ccc(C#N)cc2)c2ccc(Cl)cc12)C(=O)NCC(N)=O` [Example 443], the Ki was > 400 nM.

Regarding `CC(C)(C)[C@H](NC(=O)c1nn(Cc2ccc(C#N)cc2)c2ccccc12)C(=O)NCc1nn[nH]n1` [Example 217], the Ki is > 400 nM.

`COc1cc(C#N)ccc1Cn1nc(C(=O)N[C@H](C(=O)NC[C@@H](O)CO)C(C)(C)C)c2ccccc21` [Example 389]: the inhibition constant Ki is > 400 nM.

Compound `CC(C)(C)[C@H](NC(=O)c1nn(Cc2ccc(F)cc2)c2ccccc12)C(=O)N[C@@H]1CCCC[C@H]1O` [Example 248] showed a Ki of 108 nM.

Regarding `CC(C)(C)[C@H](NC(=O)c1nn(Cc2ccc(F)cc2)c2ccc(Cl)cc12)C(=O)NC1CC1` [Example 436], the inhibitory constant (Ki) came to 1.13 nM.

In the case of `CC(C)(C)[C@H](NC(=O)c1nn(Cc2ccc(C#N)cc2)c2c(F)cccc12)C(=O)N[C@H]1CNC(=O)C1` [Example 453], the Ki is > 400 nM.

With `CC(C)(C)[C@H](NC(=O)c1nn(Cc2ccc(C#N)cc2)c2ccccc12)C(=O)NC[C@H]1C[C@@H]1CO` [Example 485], the Ki was 152 nM.

For the compound `CC(C)(C)[C@H](NC(=O)c1nn(Cc2ccc(C#N)cc2)c2ccccc12)C(=O)NC[C@H]1C[C@H]1CO` [Example 489], affinity was put at a Ki of 127 nM.

Consider `COc1cc(C#N)ccc1Cn1nc(C(=O)N[C@H](C(=O)NC2CC2)C(C)(C)C)c2ccccc21` [Example 393], for which the Ki is > 400 nM.

Compound `CC(C)(C)[C@H](NC(=O)c1nn(Cc2ccc(C#N)cc2)c2cc(F)ccc12)C(=O)N[C@H]1C[C@H](O)C1` [Example 356] yielded a Ki of 32.6 nM.

With `CC(C)(C)[C@H](NC(=O)c1nn(Cc2ccc(C#N)cc2)c2ccccc12)C(=O)N1CC(C(N)=O)C1` [Example 351], affinity was put at a Ki of 24.3 nM.

With `COc1cc(C#N)ccc1Cn1nc(C(=O)N[C@@H](C(N)=O)C(C)(C)C)c2ccccc21` [Example 394], the Ki was > 400 nM.

For `CC(C)(C)[C@H](NC(=O)c1nn(Cc2ccc(C#N)cc2)c2ccc(Cl)cc12)C(=O)NC[C@@H](O)CO` [Example 445], the Ki is > 400 nM.

For `NC(=O)[C@H](Cc1ccccc1)NC(=O)c1nn(Cc2ccc(F)cc2)c2ccccc12` [Example 4, N-α-{[1-(4-fluorobenzyl)-1H-indazol-3-yl]carbonyl}-L-phenylalaninamide], the affinity corresponds to a Ki of 708 nM.

As to `CC(C)(C)[C@H](NC(=O)c1nn(Cc2ccc(C#N)cc2F)c2c(F)cccc12)C(=O)NC[C@@H](O)CO` [Example 366], the Ki came to 241 nM.

The same test, now with this note: read-out: CB1 Ki.
In the case of `Cc1cc(O)nc(CCNC(=O)[C@@H](NC(=O)c2nn(Cc3ccc(F)cc3)c3ccccc23)C(C)(C)C)n1` [Example 483], the Ki was found to be 84 nM.

For the compound `CC(C)(C)[C@H](NC(=O)c1nn(Cc2ccc(C#N)cc2)c2cc(F)ccc12)C(=O)NCc1nnc(C(=O)NCCO)o1` [Example 463], the Ki was found to be 274 nM.

`CC(C)(C)[C@H](NC(=O)c1nn(Cc2ccc(F)cc2)c2ccccc12)C(=O)NCC(=O)N(CCO)CCO` [Example 379]: the Ki is > 400 nM.

With `CN(CCO)C[C@@H](O)CNC(=O)[C@@H](NC(=O)c1nn(Cc2ccc(F)cc2)c2ccccc12)C(C)(C)C` [Example 507], the Ki stood at 212 nM.

Consider `CC(C)(C)[C@H](NC(=O)c1nn(Cc2ccc(C#N)cc2)c2ccccc12)C(=O)NCCN1CCNC(=O)C1` [Example 465], for which the Ki is > 400 nM.

Consider `CC(C)(C)[C@H](NC(=O)c1nn(Cc2ccc(F)cc2)c2ccccc12)C(=O)N1C[C@@H]2C[C@H]1CN2C(N)=O` [Example 219], for which the Ki was > 400 nM.

For the compound `CC(C)(C)[C@H](NC(=O)c1nn(Cc2ccc(C#N)cc2)c2c(F)cccc12)C(=O)NCc1nnc(C(=O)NCCO)o1` [Example 464], the Ki is 58 nM.

On to `COc1cc(CNC(=O)[C@@H](NC(=O)c2nn(Cc3ccc(C#N)cc3)c3cc(F)ccc23)C(C)(C)C)on1` [Example 313], for which the Ki amounted to 273 nM.

`CC(C)(C)[C@H](NC(=O)c1nn(Cc2ccc(F)cc2)c2ccccc12)C(=O)NCC(=O)NCC(=O)O` [Example 495]: the Ki stood at 130 nM.

Values taken from patent US20110028447A1, “INDAZOLE DERIVATIVES” (Pfizer Inc., priority 2008, published 2011).
